Assay results from patent US9440913B2, “Dihydroxybenzene derivatives and antiprotozoal agent comprising same as active ingredient” (NAI INC., priority 2010, dated 2016).

Legend:
[1] = test system: glycerol-3-phosphate-dependent respiration; details: mitochondrial specimen of T. brucei brucei multiplied in the rat bloodstream; cited from earlier work
T. b. rhodesiense = assay: Treatment of mice infected with T. b. rhodesiense (cure and survival); assay type: in vivo; details: for Cured/Infected: i.p., five doses at 6 hour interval
Method: Mice were infected with T. b. rhodesiense, a protozoan that causes acute symptoms at 1×10^3 cells/mouse, administration of medication in mice was started 24 hours after the infection, and the mice received five doses of each drug at the dosing interval of 6 hours. Mice were all infected and treated intraperitoneally (i.p). Mice that have no Trypanosomatid protozoan in the blood and survive even 60 days or more after the end of treatment were determined to be cured. Survival days represents an average survival time after treatment in mice that died from infection; therefore, survival days for the group of cured mice are not described in Table 2.

T. b. rhodesiense IL1501 = assay: Antiprotozoal effect, MIC measurement in HMI-9 culture; assay type: cell-based; details: Trypanosoma brucei, RHODESIENSE, 24 h, bloodstream forms, 18 + 6 hours culture
Summary of the method: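 Bloodstream-form T. b. rhodesiense IL1501 were grown in HMI-9 medium at 37° C. with 5% CO2. Three-fold serial drug dilutions from DMSO stocks were made in 96-well plates in HMI-9, with or without glycerol (final 5 mM), and 5×10^4 cells/well added. After 18 hours plus 6 more hours of culture, wells were checked by microscope; MIC was the lowest concentration showing no motile survivors.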

[2] = target: T1, recombinant Trypanosome AOX (TAO) enzyme (Trypanosoma brucei brucei, UniProt Q26710); assay: TAO enzyme inhibition (quinol oxidase activity, ubiquinol-1 substrate); assay type: biochemical, T. brucei brucei; details: TAO-expressing E. coli membrane fraction, 25° C., ubiquinol-1, absorbance at 278 nm
T1 construct: made in house; host or cells: Escherichia coli (membrane fraction)
T1 sequence (Q26710 whole entry): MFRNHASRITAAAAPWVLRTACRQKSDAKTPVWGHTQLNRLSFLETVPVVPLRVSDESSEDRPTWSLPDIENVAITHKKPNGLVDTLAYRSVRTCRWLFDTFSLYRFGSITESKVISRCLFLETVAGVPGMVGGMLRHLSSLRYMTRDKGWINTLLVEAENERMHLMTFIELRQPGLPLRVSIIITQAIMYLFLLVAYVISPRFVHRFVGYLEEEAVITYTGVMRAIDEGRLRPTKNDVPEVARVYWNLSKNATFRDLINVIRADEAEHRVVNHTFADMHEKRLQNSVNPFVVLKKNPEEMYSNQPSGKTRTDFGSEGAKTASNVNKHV
Summary of the method: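 E. coli membranes expressing T. brucei brucei TAO (0.35 ng) pre-incubated with inhibitor in 50 mM Tris-HCl pH 7.5, 4 min at 25 °C. Reaction started with ubiquinol-1; quinol oxidation followed as absorbance change at 278 nm.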

[3] = target: Cryptosporidium cyanide insensitive oxidase (AOX), recombinant protein (cCpAOX) (Cryptosporidium parvum, UniProt Q761U6); assay: CpAOX enzyme inhibition; assay type: biochemical
Sequence of Cryptosporidium cyanide insensitive oxidase (AOX), recombinant protein (cCpAOX) (Q761U6 entry or part of it): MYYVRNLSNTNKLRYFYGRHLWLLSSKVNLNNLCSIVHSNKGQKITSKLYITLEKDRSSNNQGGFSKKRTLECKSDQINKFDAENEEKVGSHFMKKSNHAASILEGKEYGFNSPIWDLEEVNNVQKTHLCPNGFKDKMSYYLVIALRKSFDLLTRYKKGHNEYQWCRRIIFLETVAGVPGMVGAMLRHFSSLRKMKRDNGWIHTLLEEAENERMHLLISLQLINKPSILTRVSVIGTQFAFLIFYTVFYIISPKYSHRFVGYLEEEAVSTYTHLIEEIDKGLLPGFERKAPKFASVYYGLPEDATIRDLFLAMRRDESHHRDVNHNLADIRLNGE
Description: Cryptosporidium has found to have cyanide insensitive oxidase (AOX), and its inhibitory activity was observed using its recombinant protein (cCpAOX) produced in E. coli.

[4] = Glycerol (+), final concentration of glycerol of 5 mM

Structure (SMILES)	absolute amounts of 50% inhibition [1]	Cured/Infected (T. b. rhodesiense; Glycerol dose 1.25 g/kg)	MIC (T. b. rhodesiense IL1501; [4]) [nM]	MIC (T. b. rhodesiense IL1501; Glycerol (−)) [nM]	IC50 [2] [nM]	also measured
C/C(=C\Cc1c(O)c(Cl)c(C)c(C=O)c1O)CC/C=C(\C)[C@@H]1CC(=O)C(C)(C)O1 (racemic) [Ascofuranone, dl-5-Chloro-2,4-dihydroxy-6-methyl-3-[(2E,6E)-3-methyl-7-(3,3-dimethyl-4-oxo-2-oxacyclopentyl)-2,6-octadienyl]benzaldehyde]	25 pmol/mg protein	5/5	–	–	–	Survival days (T. b. rhodesiense; Glycerol dose 0, average survival time after treatment in mice that died from infection): 12 days; Cured/Infected (T. b. rhodesiense; Glycerol dose 0, start 24 hours after infection, cured = no protozoan in blood and survival 60 days or more): 0/5; Survival days (T. b. rhodesiense; Glycerol dose 50 mg/kg, average survival time of mice that died from infection): 12 days; Cured/Infected (T. b. rhodesiense; Glycerol dose 50 mg/kg): 0/5; Survival days (T. b. rhodesiense; Glycerol dose 750 mg/kg, average survival time of mice that died from infection): 21 days; Cured/Infected (T. b. rhodesiense; Glycerol dose 750 mg/kg): 2/3
CCCC[C@H]1C(=O)O[C@H](C)[C@H](NC(=O)c2cccc(NC=O)c2O)C(=O)O[C@@H](C)[C@@H]1OC(=O)CC(C)C [Antimycin A3]	48,600 pmol/mg protein	–	–	–	–	–
C/C(=C\Cc1c(O)c(Cl)c(C)c(C=O)c1O)CC/C=C(\C)COC(=O)C(C)(C)C [Compound 234-12-OPiv, (2E,6E)-8-(3-Chloro-5-formyl-2,6-dihydroxy-4-methylphenyl)-2,6-dimethyl-2,6-octadienyl pivalate]	–	5/5	0.031	0.39	0.4	–
C/C(=C\Cc1c(O)c(Cl)c(C)c(C=O)c1O)CC/C=C(\C)C(C)O (stereo not shown) [Compound 277-9-OH]	–	4/4	0.048	74	0.48	IC50 [3]: 2.5 nM
CC(=O)OC(C)/C(C)=C/CC/C(C)=C/Cc1c(O)c(Cl)c(C)c(C=O)c1O (stereo not shown) [Compound 277-11-OAc, (3E,7E)-9-(3-Chloro-5-formyl-2,6-dihydroxy-4-methyl)phenyl-3,7-dimethyl-3,7-nonadie2-yl acetate]	–	4/4	0.082	2.3	1.2	IC50 [3]: 1.5 nM
CO/C(=C/C(N)=O)[C@H](C)[C@H](/C=C/c1csc(-c2csc([C@@H](C)/C=C/C=C/C(C)C)n2)n1)OC [myxothiazol]	21,500 pmol/mg protein	–	–	–	–	–
C/C=C(C)/C=C/C=C/[C@H](OC)[C@@H](C)[C@@H](OC)[C@@H](C)CCc1oc2c(O)c(OC)cc(OC)c2c(=O)c1C [stigmatellin]	18,600 pmol/mg protein	–	–	–	–	–
